Measured values from publication PMC6410080 (Viruses, 2019).
“And” between values parts separate entries of the source, which are not always exact repeats. Equal values may be shown once. Where a name gives a salt, the structure may show the parent alone. Read-outs that look alike come from different tables or passages of the source.

Assays:
[1] = system: DENV-2; experiment: DENV-2 infection assay / secondary screen (E protein staining); assay type: cell-based, dengue virus serotype 2; settings: for % inhibition (DENV-2 screen): 10 µM; for inhibition at 10 µM: read-out: % inhibition (DENV-2 screen)
[2] = system: Huh7 cells; settings: 10 µM
[3] = system: HeLa Kyoto cells; settings: 10 µM
[4] = system: SFV; experiment: microbe, parasite or virus in culture; assay type: cell-based, Semliki Forest virus; settings: for % inhibition (SFV screen): 10 µM
[5] = system: ZIKV; experiment: microbe, parasite or virus in culture; assay type: cell-based, Zika virus
[6] = system: Renilla luciferase expression (protein synthesis); assay type: cell-based
[7] = system: HSV-1; experiment: microbe, parasite or virus in culture; assay type: cell-based, herpes simplex virus 1; settings: read-out: IC50 HSV (Vero)
[8] = system: HIV-1; experiment: microbe, parasite or virus in culture; assay type: cell-based, human immunodeficiency virus type 1
[9] = system: EBOV VLP; experiment: microbe, parasite or virus in culture; assay type: cell-based, Ebola virus; settings: for IC50: read-out: IC50 EBOV
[10] = system: HCV; experiment: microbe, parasite or virus in culture; assay type: cell-based, hepatitis C virus
[11] = system: viruses/VLPs tested; assay type: cell-based
[12] = system: HeLa Kyoto cells
[13] = system: VACV; experiment: microbe, parasite or virus in culture; assay type: cell-based, vaccinia virus
[14] = system: Huh7 cells; experiment: MTT assay, Huh7 cells; settings: for TC50 DENV-2 (7 + 17 h): Huh7, compounds 7 h then compound-free media 17 h; for TC50 DENV-2 (24 h): Huh7, compounds 24 h
[15] = system: RABV VLP; experiment: microbe, parasite or virus in culture; assay type: cell-based, rabies virus; settings: read-out: IC50 RABV
[16] = system: YF17D; experiment: organism not typed; assay type: cell-based, yellow fever 17D
[17] = system: H5N1 VLP; experiment: microbe, parasite or virus in culture; assay type: cell-based, influenza H5N1; settings: for IC50: read-out: IC50 H5N1
[18] = system: SFV; assay type: cell-based, Semliki Forest virus
[19] = system: SINV; experiment: microbe, parasite or virus in culture; assay type: cell-based, Sindbis virus; settings: read-out: IC50 SINV
[20] = system: VSV VLP; experiment: microbe, parasite or virus in culture; assay type: cell-based, vesicular stomatitis virus; settings: read-out: IC50 VSV
[21] = system: DENV-1; experiment: microbe, parasite or virus in culture; assay type: cell-based, dengue virus
[22] = system: DENV-3; experiment: microbe, parasite or virus in culture; assay type: cell-based, dengue virus
[23] = in vitro; settings: human, % viability (SFV screen)
[24] = in vitro; settings: human
[25] = Huh7, MOI 1, 24 h, compared to DMSO-treated controls
[26] = Huh7, 24 h, compared to DMSO-treated controls
[27] = Huh7, compounds 7 h then media replaced for 17 h, read-out: IC50 DENV-2 (7 + 17 h)
[28] = Huh7, compounds for entire 24 h, read-out: IC50 DENV-2 (24 h)
[29] = Dengue virus, DENV2, Huh-7, 24 h

Cl.Cl.Fc1ccc(C(OCCN2CCN(CCCc3ccccc3)CC2)c2ccc(F)cc2)cc1 [GBR 12909 dihydrochloride]
% inhibition (DENV-2 screen) [1, 25]: 83.87%
% viability (DENV-2 screen) [2]: 38.91%
% viability (SFV screen) [3]: 90.30%
% inhibition (SFV screen) [4]: 75.39%

CCOC(=O)N1CCN(/[N+]([O-])=N/Oc2ccc([N+](=O)[O-])cc2[N+](=O)[O-])CC1 [JS-K]
% inhibition (DENV-2 screen) [1, 25]: 84.24%
% viability (DENV-2 screen) [2, 26]: 53.82%
% viability (SFV screen) [3]: 66.74%
% inhibition (SFV screen) [4]: 84.89%

O=[N+]([O-])c1ccc2c(c1)S(=O)(=O)C=C2 [Stattic]
IC50 ([5]; read-out: IC50 ZIKV): 4 µM
% inhibition (DENV-2 screen) [1, 25]: 87.08%
IC50 [1, 27]: 3 µM
IC50 [1, 28]: 0.9 µM
Decrease of Renilla signal (protein synthesis) [6]: more than 50%
Inhibition of protein synthesis at lower concentrations [6]: lose their inhibitory activity on protein synthesis
% viability (DENV-2 screen) [2]: 60.49%
IC50 [7]: 5.2 µM
IC50 ([8]; read-out: IC50 HIV): 3.2 µM
IC50 EBOV [9]: Toxic
IC50 ([10]; read-out: IC50 HCV): 3.7 µM
Viruses Inhibited [11]: All tested
TC50 SFV (7 h) [12]: 7.8 µM
TC50 SFV (7h) [12]: 7800 µM
IC50 ([13]; read-out: IC50 VACV): 4.1 µM
% viability (SFV screen) [3]: 64.89%
TC50 DENV-2 (7 + 17 h) [14]: 17.3 µM
TC50 DENV-2 (24 h) [14]: 9.7 µM
IC50 [15]: 3.2 µM
IC50 ([16]; read-out: IC50 YF17D): 4.9 µM
IC50 H5N1 [17]: Toxic
% inhibition (SFV screen) [4]: 95.82%
Activity when added before SFV or 30 and 60 min after internalisation [18]: No difference
Time of Addition [18]: After fusion
IC50 [19]: 3.6 µM

CC(=O)/C=C1\C(=O)N(C)c2ccccc21 [Supercinnamaldehyde]
IC50 ZIKV [5]: No inhibition
% inhibition (DENV-2 screen) [1, 25]: 64.49%
IC50 [1, 27]: 15.4 µM
IC50 [1, 28]: 15 µM
IC50 [20]: 14.6 µM
% viability (DENV-2 screen) [2]: 90.32%
IC50 ([21]; read-out: IC50 DENV-1): ~22.7 µM
IC50 [7]: 25.2 µM
IC50 HIV [8]: No inhibition
IC50 [9]: 21.2 µM
IC50 ([10]; read-out: IC50 HCV): 15.8 µM
TC50 SFV (7 h) [12]: 40.5 µM
TC50 SFV (7h) [12]: 40500 µM
IC50 VACV [13]: No inhibition
% viability (SFV screen) [3]: 69.48%
TC50 DENV-2 (7 + 17 h) [14]: 59.6 µM
TC50 DENV-2 (24 h) [14]: 25.8 µM
IC50 [15]: 21.6 µM
IC50 ([16]; read-out: IC50 YF17D): 7.6 µM
IC50 [17]: 17.5 µM
IC50 ([22]; read-out: IC50 DENV-3): 12.2 µM
% inhibition (SFV screen) [4]: 89.06%
Activity when added before SFV or 30 and 60 min after internalisation [18]: No difference
Time of Addition [18]: After fusion
IC50 [19]: 24.9 µM

COc1ccc(C[C@@H](C)NC[C@H](O)c2ccc(O)c(NC=O)c2)cc1.COc1ccc(C[C@@H](C)NC[C@H](O)c2ccc(O)c(NC=O)c2)cc1.O=C(O)/C=C/C(=O)O [Formoterol fumarate]
% inhibition (DENV-2 screen) [1]: -41.42%
% viability (DENV-2 screen) [2, 26]: 102.07%
% viability (SFV screen) ([3]; HeLa Kyoto, 7 h, compared to DMSO-treated controls, LOPAC and Prestwick samples listed separately): 97.47%
% inhibition (SFV screen) [4]: 86.74%

Cl.Cn1c(CCCC(=O)O)nc2cc(N(CCCl)CCCl)ccc21 [Bendamustine hydrochloride]
% inhibition (DENV-2 screen) [1]: 56.91%
% viability (DENV-2 screen) [2, 26]: 85.62%
% viability (SFV screen) [3]: 76.50%
% inhibition (SFV screen) [4]: 104.91%

O=C1c2c(O)ccc(O)c2C(=O)c2c(NCCNCCO)ccc(NCCNCCO)c21 [Mitoxantrone, Mitoxantrone dihydrochloride]
IC50 ([5]; Zika virus, Huh-7, read-out: IC50 ZIKV): ~25 µM
inhibition at 10 µM [1, 29]: 99.4%
IC50 ([1]; Dengue virus, DENV2, Huh-7, 24 h, read-out: IC50 DENV-2 (7 + 17 h)): 2 µM
IC50 ([1]; Dengue virus, DENV2, Huh-7, 24 h, read-out: IC50 DENV-2 (24 h)): 2.1 µM
IC50 ([20]; Vesicular stomatitis virus, HeLa Kyoto, 24 h): 0.6 µM
IC50 ([21]; Dengue virus, DENV1, Huh-7, read-out: IC50 DENV-1): 5.6 µM
IC50 ([7]; Human alphaherpesvirus 1, Vero, 8 h): 6.8 µM
IC50 ([9]; Zaire ebolavirus, HeLa Kyoto, 48 h): 0.1 µM
IC50 ([10]; Hepatitis C virus, Huh7.5, read-out: IC50 HCV): 2.7 µM
Viruses Inhibited [11]: Unclear pattern
TC50 SFV (7 h) ([12]; human): 43.2 µM
TC50 SFV (7h) ([12]; human): 43200 µM
viability at 10 µM [23]: 88.5%
IC50 VACV [13]: No inhibition
% viability (SFV screen) ([3]; human): 88.92%
TC50 DENV-2 (7 + 17 h) [14]: 7.9 µM
TC50 DENV-2 (24 h) [14]: 4.6 µM
IC50 ([15]; Lyssavirus rabies, HeLa Kyoto, 24 h): < 0.5 µM
IC50 ([16]; Huh-7, read-out: IC50 YF17D): 2.2 µM
IC50 ([17]; Influenza A virus, H5N1, HeLa Kyoto, 48 h): 2.8 µM
viability at 10 µM [24]: 11.2%
IC50 ([22]; Dengue virus, DENV3, Huh-7, read-out: IC50 DENV-3): 6.3 µM
% inhibition (SFV screen) [4]: 59.01% and 85.19%
IC50 ([4]; Semliki Forest virus, HeLa Kyoto, read-out: IC50 SFV (7 h)): 7 µM
Activity when added before SFV or 30 and 60 min after internalisation [18]: progressive and more dramatic decrease in activity
Time of Addition [18]: Before and after fusion
IC50 ([19]; Sindbis virus, HeLa Kyoto): 9.9 µM

C=CCN1CC[C@]23c4c5ccc(O)c4O[C@@H]2/C(=N/N=C2\CC[C@@]4(O)C6Cc7ccc(O)c8c7[C@@]4(CCN6CC=C)[C@@H]2O8)CC[C@@]3(O)C1C5.Cl.Cl [Naloxonazine dihydrochloride]
% inhibition (DENV-2 screen) [1]: 16.23%
% viability (DENV-2 screen) [2]: 111.66%
% viability (SFV screen) [3]: 87.36%
% inhibition (SFV screen) [4]: 70.80%

CCSc1ccc2c(c1)N(CCCN1CCN(C)CC1)c1ccccc1S2.O=C(O)CC(O)C(=O)O.O=C(O)CC(O)C(=O)O [Thiethylperazine dimalate]
% viability (DENV-2 screen) [2]: 0.15%
% viability (SFV screen) [3]: 92.47%
% inhibition (SFV screen) [4]: 91.68%

CC[C@H]1CN2CCc3cc(OC)c(OC)cc3[C@@H]2C[C@@H]1C[C@H]1NCCc2cc(OC)c(OC)cc21 [Emetine dihydrochloride hydrate]
inhibition at 10 µM [1, 29]: 100%
Renilla signal (in words) [6]: significantly reduced the Renilla signal
viability at 10 µM [23]: 104%
viability at 10 µM [24]: 51.2%
inhibition at 10 µM ([4]; Semliki Forest virus, M-HeLa, 7 h, read-out: % inhibition (SFV screen)): 104%
